Like-named read-outs stand apart in the source and are kept apart here.
Columns and labels:
Format in all cases: binding
[1] = biological target: T1, mTOR (Homo sapiens, UniProt P42345); assay: mTOR kinobeads assay (dot blot detection)
T1 construct: endogenous in cells; host or cells: Jurkat cells (ATCC TIB-152, clone E6-1), lysate
Description: (§1) The compounds of the present invention as described were tested in the mTOR kinobeads assay as described below. Briefly, test compounds (at various concentrations) and the affinity matrix (1:1 mixture of beads with immobilized phenylthiazole ligand 1 and beads with immobilized phenylmorpholin-chromen ligand; WO 2009/098021) were added to cell lysate aliquots and allowed to bind to the proteins in the lysate sample. After the incubation time the beads with captured proteins were separated from the lysate. Bound proteins were then eluted and the presence of mTOR, PI3K delta (PI3 Kd) and DNA-dependent protein kinase (DNA-PK) was detected and quantified using a specific antibody in a dot blot procedure and the Odyssey infrared detection system. Dose response curves for individual kinases were generated and IC50 values calculated. Kinobeads assays for PI3 kinases (WO-A 2008/015013) and for kinase selectivity profiling (WO 2009/098021) have been previously described.
(§2) The affinity matrix (beads with immobilized phenylmorpholin-chromen ligand) was washed two times with 15 ml of 1×DP buffer containing 0.2% NP40 (IGEPAL® CA-630, Sigma, #13021) and then resupended in 5.5 ml of 1×DP buffer containing 0.2% NP40 (10% beads slurry).
(§3) 5×DP buffer: 250 mM Tris-HCl pH 7.4, 25% Glycerol, 7.5 mM MgCl2, 750 mM NaCl, 5 mM Na3VO4, filter the 5×-lysis buffer through 0.22 μm filter and store in aliquots at −80° C. The 5×DP buffer is diluted to 1×DP buffer containing 1 mM DTT and 25 mM NaF.
(§4) Stock solutions of test compounds were prepared in DMSO. In a 96 well plate 30 μl solution of diluted test compounds at 5 mM in DMSO were prepared. Starting with this solution a 1:3 dilution series (9 steps) was prepared. For control experiments (no test compound) a buffer containing 2% DMSO was used. Compound CZC00018052 served as a positive control (PI-103; Calbiochem catalogue number 528100).
(§5) Jurkat cells (ATCC catalogue number TIB-152 Jurkat, clone E6-1) were grown in 1 litre Spinner flasks (Integra Biosciences, #182101) in suspension in RPMI 1640 medium (Invitrogen, #21875-034) supplemented with 10% Fetal Bovine Serum (Invitrogen) at a density between 0.15×10^6 and 1.2×10^6 cells/ml. Cells were harvested by centrifugation, washed once with 1×PBS buffer (Invitrogen, #14190-094) and cell pellets were frozen in liquid nitrogen and subsequently stored at −80° C.
(§6) Jurkat cells were homogenized in a Potter S homogenizer in lysis buffer: 50 mM Tris-HCl, 0.8% NP40, 5% glycerol, 150 mM NaCl, 1.5 mM MgCl2, 25 mM NaF, 1 mM sodium vanadate, 1 mM DTT, pH 7.5. One complete EDTA-free tablet (protease inhibitor cocktail, Roche Diagnostics, 1873580) per 25 ml buffer was added. The material was dounced 10 times using a mechanized POTTER S, transferred to 50 ml falcon tubes, incubated for 30 minutes on ice and spun down for 10 min at 20,000 g at 4° C. (10,000 rpm in Sorvall SLA600, precooled). The supernatant was transferred to an ultracentrifuge (UZ)-polycarbonate tube (Beckmann, 355654) and spun for 1 hour at 100.000 g at 4° C. (33.500 rpm in Ti50.2, precooled). The supernatant was transferred again to a fresh 50 ml falcon tube, the protein concentration was determined by a Bradford assay (BioRad) and samples containing 50 mg of protein per aliquot were prepared. The samples were immediately used for experiments or frozen in liquid nitrogen and stored frozen at −80° C.
(§7) Jurkat cell lysate (approximately 50 mg protein per plate) was thawed in a water bath at room temperature and then kept on ice. To the thawed cell lysate 1×DP 0.8% NP40 buffer containing protease inhibitors (1 tablet for 25 ml buffer; EDTA-free protease inhibitor cocktail; Roche Diagnostics 1873580) was added in order to reach a final protein concentration of 5 mg/ml total protein. The diluted cell lysate was stored on ice. […]

[2] = biological target: T2, PI3K delta (PI3Kd) (Homo sapiens, UniProt O00329); assay: kinobeads assay, PI3K delta (dot blot detection)
T2 construct: endogenous in cells; host or cells: Jurkat cells (ATCC TIB-152, clone E6-1), lysate
Description: as §1, §2, §3, §4, §5, §6, §7

[3] = biological target: T3, DNA-dependent protein kinase (DNA-PK) (Homo sapiens, UniProt P78527); assay: kinobeads assay, DNA-PK (dot blot detection)
T3 construct: endogenous in cells; host or cells: Jurkat cells (ATCC TIB-152, clone E6-1), lysate
Description: as §1, §2, §3, §4, §5, §6, §7

[4] = Table 2, Jurkat cell lysate, read-out: Inhibition values (IC50) mTor
[5] = Table 4, read-out: Inhibition values (IC50) mTOR
[6] = Table 2, Jurkat cell lysate, read-out: Inhibition values (IC50) PI3Kd
[7] = Table 4, read-out: Inhibition values (IC50) PI3Kd
[8] = Table 2, Jurkat cell lysate, read-out: Inhibition values (IC50) DNAPK
[9] = Table 4, read-out: Inhibition values (IC50) DNAPK

T3 sequence (P78527 whole entry): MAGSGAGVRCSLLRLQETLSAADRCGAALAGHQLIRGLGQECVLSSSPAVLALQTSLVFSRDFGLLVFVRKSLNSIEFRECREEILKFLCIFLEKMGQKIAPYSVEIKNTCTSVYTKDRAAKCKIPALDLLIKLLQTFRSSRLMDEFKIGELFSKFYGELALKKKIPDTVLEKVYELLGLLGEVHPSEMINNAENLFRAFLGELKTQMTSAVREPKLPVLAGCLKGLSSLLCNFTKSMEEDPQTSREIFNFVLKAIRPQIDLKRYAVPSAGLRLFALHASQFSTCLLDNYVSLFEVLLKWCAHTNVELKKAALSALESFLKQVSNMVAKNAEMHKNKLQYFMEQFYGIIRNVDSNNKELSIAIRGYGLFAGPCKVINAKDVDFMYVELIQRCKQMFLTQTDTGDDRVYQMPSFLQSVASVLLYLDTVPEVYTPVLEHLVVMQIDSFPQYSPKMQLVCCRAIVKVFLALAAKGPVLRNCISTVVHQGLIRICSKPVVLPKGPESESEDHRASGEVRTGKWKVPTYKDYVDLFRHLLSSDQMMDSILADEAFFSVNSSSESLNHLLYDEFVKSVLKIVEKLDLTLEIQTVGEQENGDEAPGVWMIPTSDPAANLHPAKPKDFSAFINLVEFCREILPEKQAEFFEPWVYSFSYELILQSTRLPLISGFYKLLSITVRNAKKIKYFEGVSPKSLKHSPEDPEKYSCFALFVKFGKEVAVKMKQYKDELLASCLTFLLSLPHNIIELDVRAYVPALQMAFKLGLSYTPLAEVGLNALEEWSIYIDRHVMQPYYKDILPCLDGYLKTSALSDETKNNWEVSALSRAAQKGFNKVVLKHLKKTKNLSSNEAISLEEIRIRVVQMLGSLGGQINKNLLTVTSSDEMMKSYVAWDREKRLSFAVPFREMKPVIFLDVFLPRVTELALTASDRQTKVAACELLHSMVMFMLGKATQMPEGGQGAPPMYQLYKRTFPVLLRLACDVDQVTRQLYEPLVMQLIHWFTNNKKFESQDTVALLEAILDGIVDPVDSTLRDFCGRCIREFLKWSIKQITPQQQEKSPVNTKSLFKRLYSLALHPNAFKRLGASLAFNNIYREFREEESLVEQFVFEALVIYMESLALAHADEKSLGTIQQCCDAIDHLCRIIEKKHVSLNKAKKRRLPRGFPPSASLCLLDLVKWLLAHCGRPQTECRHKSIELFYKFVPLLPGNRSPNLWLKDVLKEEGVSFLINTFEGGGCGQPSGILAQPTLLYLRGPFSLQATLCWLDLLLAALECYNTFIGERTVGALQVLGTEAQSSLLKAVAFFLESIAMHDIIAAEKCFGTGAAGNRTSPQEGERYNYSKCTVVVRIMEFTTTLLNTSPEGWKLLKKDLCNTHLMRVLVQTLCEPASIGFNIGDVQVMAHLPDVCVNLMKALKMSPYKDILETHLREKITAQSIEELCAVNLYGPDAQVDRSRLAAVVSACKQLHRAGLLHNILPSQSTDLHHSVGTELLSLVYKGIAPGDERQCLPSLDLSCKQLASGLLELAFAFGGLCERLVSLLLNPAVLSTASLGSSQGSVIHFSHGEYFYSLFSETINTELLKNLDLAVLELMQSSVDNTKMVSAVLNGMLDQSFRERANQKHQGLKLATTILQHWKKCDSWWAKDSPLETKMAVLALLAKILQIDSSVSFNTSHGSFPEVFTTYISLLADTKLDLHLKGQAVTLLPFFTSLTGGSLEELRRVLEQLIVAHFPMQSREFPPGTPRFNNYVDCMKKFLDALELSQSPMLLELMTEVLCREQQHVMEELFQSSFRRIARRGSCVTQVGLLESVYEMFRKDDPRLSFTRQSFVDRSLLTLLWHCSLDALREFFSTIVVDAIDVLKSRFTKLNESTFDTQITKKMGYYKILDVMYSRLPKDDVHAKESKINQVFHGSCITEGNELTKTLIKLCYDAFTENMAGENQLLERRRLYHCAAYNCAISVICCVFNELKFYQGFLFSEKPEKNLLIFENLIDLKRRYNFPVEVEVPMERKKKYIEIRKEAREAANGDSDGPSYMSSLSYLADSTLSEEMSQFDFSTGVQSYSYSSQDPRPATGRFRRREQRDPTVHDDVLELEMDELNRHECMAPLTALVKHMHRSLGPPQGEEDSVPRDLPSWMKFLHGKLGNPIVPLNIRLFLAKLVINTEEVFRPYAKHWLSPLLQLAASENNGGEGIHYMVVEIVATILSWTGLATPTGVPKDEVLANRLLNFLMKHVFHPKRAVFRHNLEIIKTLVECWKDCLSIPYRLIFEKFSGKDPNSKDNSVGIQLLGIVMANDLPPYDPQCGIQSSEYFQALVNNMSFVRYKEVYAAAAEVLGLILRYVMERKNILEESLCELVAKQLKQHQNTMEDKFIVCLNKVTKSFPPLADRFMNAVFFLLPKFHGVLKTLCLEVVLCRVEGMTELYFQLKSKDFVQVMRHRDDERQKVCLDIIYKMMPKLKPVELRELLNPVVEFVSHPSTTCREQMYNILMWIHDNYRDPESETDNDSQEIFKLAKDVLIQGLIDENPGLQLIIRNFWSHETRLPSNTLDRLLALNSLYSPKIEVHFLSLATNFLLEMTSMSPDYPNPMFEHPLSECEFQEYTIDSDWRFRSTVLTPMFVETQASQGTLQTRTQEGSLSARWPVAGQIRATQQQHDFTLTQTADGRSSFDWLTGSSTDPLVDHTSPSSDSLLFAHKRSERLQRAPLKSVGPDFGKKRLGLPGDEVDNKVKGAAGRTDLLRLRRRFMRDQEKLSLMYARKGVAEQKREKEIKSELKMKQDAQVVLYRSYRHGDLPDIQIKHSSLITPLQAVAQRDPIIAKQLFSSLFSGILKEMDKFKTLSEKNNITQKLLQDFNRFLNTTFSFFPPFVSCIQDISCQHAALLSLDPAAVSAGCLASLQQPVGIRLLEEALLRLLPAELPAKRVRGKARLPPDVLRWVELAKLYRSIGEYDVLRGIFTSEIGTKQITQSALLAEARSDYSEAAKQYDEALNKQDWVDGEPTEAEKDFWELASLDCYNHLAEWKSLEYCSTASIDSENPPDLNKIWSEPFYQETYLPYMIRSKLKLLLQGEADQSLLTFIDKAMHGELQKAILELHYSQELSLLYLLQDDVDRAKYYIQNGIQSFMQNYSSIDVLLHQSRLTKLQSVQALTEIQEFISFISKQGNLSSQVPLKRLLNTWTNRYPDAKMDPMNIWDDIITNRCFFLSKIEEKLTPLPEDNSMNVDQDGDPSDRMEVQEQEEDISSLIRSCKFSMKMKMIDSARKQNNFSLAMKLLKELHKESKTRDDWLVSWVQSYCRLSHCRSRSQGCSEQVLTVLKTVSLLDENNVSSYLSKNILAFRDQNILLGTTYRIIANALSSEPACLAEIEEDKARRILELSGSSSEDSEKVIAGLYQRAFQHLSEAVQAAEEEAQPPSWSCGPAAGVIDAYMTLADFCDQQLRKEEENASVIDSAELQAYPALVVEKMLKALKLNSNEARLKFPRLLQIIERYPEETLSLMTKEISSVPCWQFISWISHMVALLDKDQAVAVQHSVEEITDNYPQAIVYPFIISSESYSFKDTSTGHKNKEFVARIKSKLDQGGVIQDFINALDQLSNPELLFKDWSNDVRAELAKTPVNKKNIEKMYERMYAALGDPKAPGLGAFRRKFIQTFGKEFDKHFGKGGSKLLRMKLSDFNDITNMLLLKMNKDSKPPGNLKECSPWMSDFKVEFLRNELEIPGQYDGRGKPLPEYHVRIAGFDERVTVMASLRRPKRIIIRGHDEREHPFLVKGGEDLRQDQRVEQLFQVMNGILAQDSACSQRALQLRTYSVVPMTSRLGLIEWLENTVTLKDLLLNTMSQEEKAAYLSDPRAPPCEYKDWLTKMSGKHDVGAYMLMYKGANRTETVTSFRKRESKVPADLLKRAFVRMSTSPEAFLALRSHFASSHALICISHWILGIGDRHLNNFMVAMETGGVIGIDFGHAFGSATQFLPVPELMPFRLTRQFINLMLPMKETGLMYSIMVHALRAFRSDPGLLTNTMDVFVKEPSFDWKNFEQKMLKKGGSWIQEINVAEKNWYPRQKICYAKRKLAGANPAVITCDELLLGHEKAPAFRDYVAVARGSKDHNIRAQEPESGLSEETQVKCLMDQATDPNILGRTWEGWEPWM

SMILES | IC50 [1, 4] | IC50 [1, 5] | IC50 [2, 6] | IC50 [2, 7] | IC50 [3, 8] | IC50 [3, 9]
CCNC(=O)Nc1ccc(-c2cc(-c3ccccc3NC(C)=O)nc(N3CCOC[C@@H]3C)n2)cc1 [Example 10, (S)—N-(2-(6-(4-(3-ethylureido)phenyl)-2-(3-methylmorpholino)pyrimidin-4-yl)phenyl)acetamide] | 1 to 10 µM | 1 to 10 µM | ≥ 10 µM | ≥ 10 µM | ≥ 10 µM | ≥ 10 µM
C[C@H]1COCCN1c1cc(-c2cccc(S(C)(=O)=O)c2)nc(-c2ccc(NC(=O)NC3CC3)cc2)n1 [Example 5, (S)-1-cyclopropyl-3-(4-(4-(3-methylmorpholino)-6-(3-(methylsulfonyl)phenyl)pyrimidin-2-yl)phenyl)urea] | 1 to 10 µM | 1 to 10 µM | ≥ 10 µM | ≥ 10 µM | ≥ 10 µM | ≥ 10 µM
CCNC(=O)Nc1ccc(-c2cc(-c3ccccc3CO)nc(N3CCOC[C@@H]3C)n2)cc1 [Example 16, (S)-1-ethyl-3-(4-(6-(2-(hydroxymethyl)phenyl)-2-(3-methylmorpholino)pyrimidin-4-yl)phenyl)urea] | 1 to 10 µM | 1 to 10 µM | ≥ 10 µM | ≥ 10 µM | ≥ 10 µM | ≥ 10 µM
CCNC(=O)Nc1ccc(-c2cc(-c3ccccc3S(C)(=O)=O)nc(N3CCOCC3)n2)cc1 [Example 20, 1-ethyl-3-(4-(6-(2-(methylsulfonyl)phenyl)-2-morpholinopyrimidin-4-yl)phenyl)urea] | 1 to 10 µM | 1 to 10 µM | ≥ 10 µM | ≥ 10 µM | ≥ 10 µM | ≥ 10 µM
CCNC(=O)Nc1ccc(-c2cc(-c3ccncc3)nc(N3CCOC[C@@H]3C)n2)cc1 [Example 13, (S)-1-ethyl-3-(4-(2-(3-methylmorpholino)-6-(pyridin-4-yl)pyrimidin-4-yl)phenyl)urea] | 1 to 10 µM | 1 to 10 µM | ≥ 10 µM | ≥ 10 µM | ≥ 10 µM | ≥ 10 µM
CCNC(=O)Nc1ccc(-c2cc(-c3cc[nH]n3)nc(N3CCOC[C@@H]3C)n2)cc1 [Example 18, (S)-1-ethyl-3-(4-(2-(3-methylmorpholino)-6-(1H-pyrazol-3-yl)pyrimidin-4-yl)phenyl)urea] | 1 to 10 µM | 1 to 10 µM | ≥ 10 µM | ≥ 10 µM | ≥ 10 µM | ≥ 10 µM
CCNC(=O)Nc1ccc(-c2cc(-c3ccccc3C(N)=O)nc(N3CCOC[C@@H]3C)n2)cc1 [Example 12, (S)-2-(6-(4-(3-ethylureido)phenyl)-2-(3-methylmorpholino)pyrimidin-4-yl)benzamide] | 1 to 10 µM | 1 to 10 µM | ≥ 10 µM | ≥ 10 µM | ≥ 10 µM | ≥ 10 µM
CCNC(=O)Nc1ccc(-c2cc(-c3ccccc3C(=O)O)nc(N3CCOC[C@@H]3C)n2)cc1 [Example 11, (S)-2-(6-(4-(3-ethylureido)phenyl)-2-(3-methylmorpholino)pyrimidin-4-yl)benzoic acid] | 1 to 10 µM | 1 to 10 µM | ≥ 10 µM | ≥ 10 µM | ≥ 10 µM | ≥ 10 µM
O=C(Nc1ccc(-c2cc(-c3cccnc3)nc(N3CCOCC3)n2)cc1)NC1CC1 [Example 1, 1-cyclopropyl-3-(4-(2-morpholino-6-(pyridin-3-yl)pyrimidin-4-yl)phenyl)urea] | 1 to 10 µM | 1 to 10 µM | ≥ 10 µM | ≥ 10 µM | ≥ 10 µM | ≥ 10 µM
CCNC(=O)Nc1ccc(-c2cc(-c3ccccc3S(=O)(=O)NC)nc(N3CCOCC3)n2)cc1 [Example 19, 2-(6-(4-(3-ethylureido)phenyl)-2-morpholinopyrimidin-4-yl)-N-methylbenzenesulfonamide] | 1 to 10 µM | 1 to 10 µM | ≥ 10 µM | ≥ 10 µM | ≥ 10 µM | ≥ 10 µM
CCNC(=O)Nc1ccc(-c2cc(-c3ccccc3NS(C)(=O)=O)nc(N3CCOC[C@@H]3C)n2)cc1 [Example 9, (S)—N-(2-(6-(4-(3-ethylureido)phenyl)-2-(3-methylmorpholino)pyrimidin-4-yl)phenyl)methanesulfonamide] | 1 to 10 µM | 1 to 10 µM | ≥ 10 µM | ≥ 10 µM | ≥ 10 µM | ≥ 10 µM

Results, then the molecule that gave them:

IC50 [1, 4] | IC50 [1, 5] | IC50 [2, 6] | IC50 [2, 7] | IC50 [3, 8] | IC50 [3, 9] | SMILES
1 to 10 µM | 1 to 10 µM | ≥ 10 µM | ≥ 10 µM | 1 to 10 µM | 1 to 10 µM | CCCNC(=O)Nc1ccc(-c2ccnc(N3CCOCC3)n2)cc1 [Example 31, 1-propyl-3-(4-(2-morpholinopyrimidin-4-yl)phenyl)urea]
1 to 10 µM | 1 to 10 µM | 1 to 10 µM | 1 to 10 µM | 1 to 10 µM | 1 to 10 µM | NC(=O)Nc1ccc(-c2nccc(N3CCOCC3)n2)cc1 [Example 33, 1-(4-(4-morpholinopyrimidin-2-yl)phenyl)urea]
1 to 10 µM | 1 to 10 µM | ≥ 10 µM | ≥ 10 µM | 1 to 10 µM | 1 to 10 µM | CCNC(=O)Nc1ccc(-c2nccc(N3CCOCC3)n2)cc1 [Example 36, 1-ethyl-3-(4-(4-morpholinopyrimidin-2-yl)phenyl)urea]
1 to 10 µM | 1 to 10 µM | ≥ 10 µM | ≥ 10 µM | 1 to 10 µM | 1 to 10 µM | CCCNC(=O)Nc1ccc(-c2nccc(N3CCOCC3)n2)cc1 [Example 32, 1-(4-(4-morpholinopyrimidin-2-yl)phenyl)-3-propylurea]
1 to 10 µM | 1 to 10 µM | 1 to 10 µM | 1 to 10 µM | 1 to 10 µM | 1 to 10 µM | CNC(=O)Nc1ccc(-c2nccc(N3CCOCC3)n2)cc1 [Example 27, 1-methyl-3-(4-(4-morpholinopyrimidin-2-yl)phenyl)urea]
